Test results from patent publication US12174461B2, “Sustained release of oleic acid from contact lenses” (CooperVision International Limited, priority 2022, dated 2024).

Legend:
[1] = Amount of DOPG loaded in stenfilcon A lens, by IPA extraction and LCMS; assay type: physicochemical; settings: about 90 minutes
Description: 1,2-Dioleoyl-sn-glycero-3-phospho-rac-(1-glycerol) sodium salt (DOPG) from Sigma-Aldrich was dissolved into a 50% by volume ethanol (EtOH) 50% by volume deionized water solution and sonicated until the DOPG was fully dissolved to provide DOPG loading solutions ranging in concentration from 1 mg/ml to 10 mg/ml.
Silicone hydrogel contact lenses were prepared by curing the formulation for stenfilcon A in polypropylene contact lens molds. The cured stenfilcon A was removed from the molds, and each lens was extracted in EtOH to remove unreacted monomer. The lenses were then placed in the DOPG loading solutions for about 90 minutes and then hydrated in several exchanges of DI water. The lenses were packaged in plastic blisters with about 1.2 ml of a packaging solution comprising phosphate buffered saline (PBS) and autoclaved.
The amount of DOPG in each lens was determined by extracting the lens with isopropanol (IPA) and measuring DOPG in the extract by LCMS. Briefly, each lens was removed from its blister pack, lightly blotted to remove excess packaging solution, and placed in a 20 mL glass vial containing 10 mL 100% IPA. The vials were placed on a bench top shaker at 300 rpm overnight (˜16 hours) at room temperature. For stenfilcon A, a single […] extraction step is sufficient to extract substantially all the DOPG from the lense. Silicone hydrogel lens materials that are more hydrophobic may require a second overnight extraction in order to extract all the DOPG, in which case the IPA from the first extraction step is removed and replaced with 3 mL fresh IPA and shaken overnight at 300 rpm at room temperature. The amount of DOPG in the IPA extract from each lens is determined by LCMS compared to a DOPG standard solution.

[2] = biological target: T1, recombinant human PLA2G2A (sPLA2-IIA) (Homo sapiens, UniProt P14555); test: sPLA2 digestion assay: oleic acid release from stenfilcon A lenses loaded with phospholipid, in ATF with and without sPLA2 (LCMS); assay type: biochemical; settings: 35±2° C., 4 hours; for Oleic acid peak area in ATF (without sPLA2): 4 mm piece of phospholipid-loaded stenfilcon A lens in 100 μL ATF; for Ratio of OA peak area in ATF with and without sPLA2: stenfilcon A lens pieces, 50 ppm sPLA2
T1 construct: purchased Creative BioMart PLA2G2A-669H
T1 sequence (P14555 21-144): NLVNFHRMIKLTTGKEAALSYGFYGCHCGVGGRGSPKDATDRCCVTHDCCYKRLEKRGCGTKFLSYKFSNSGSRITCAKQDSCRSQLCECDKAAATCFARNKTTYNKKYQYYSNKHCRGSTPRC
Description: The phospholipids shown in Table 1 were obtain from Avanti Polar Lipids. 3 mg/ml loading solutions of the phospholipids shown in Table 1 were prepared by adding 2.4 mL ethanol to 9 mg of phospholipid, sonicating (up to 15 minutes) then adding 0.6 mL DI water and sonicating again (up to 15 minutes) to dissolve the phospholipid.
Hydrated contact lenses made from stenfilcon A were washed three times in 3 mL purified water for 30 minutes each time. Each washed lens was placed in 3 mL of a phospholipid loading solution and incubated at room temperature with gentle shaking at 75 rpm for 3 hours. The loaded lenses were then rinsed and hydrated in several exchanges of DI water. The lenses were packaged in a buffered saline contact lens packaging solution and autoclaved.
An artificial tear fluid (ATF) was prepared by adding the first three ingredients listed in Table 2 to a clean class vial and then adding 30 mL of the fourth ingredient.
After autoclave each lens was removed from its package and place in a 6 mL glass vial containing 5 mL of the ATF at room temperature on a shaker at 125 rpm overnight to elute any free oleic acid that may be present in the lens.
Each lens was rinsed in a 6 ml glass vial containing a fresh aliquot of 5 mL ATF for 30 minutes prior to running the digestion assay.
A 50 ppm solution of sPLA2 was prepared in ATF by adding 200 μl ATF to a tube containing 10 μg recombinant human PLA2G2A (Creative BioMart, Cat. No. PLA2G2A-669H). The solution is referred to as ATF+sPLA2. Two 4 mm pieces were cut from each lens. One piece of each lens was placed in a tube with 100 μL ATF and the other piece was placed in a tube containing 100 μL ATF+sPLA2. The tubes were incubated at 35±2° C. for 4 hours with no shaking.
50 μl of the release media from each lens at T=4 hr was transferred to HPLC vials and 500 μl isopropanol (IPA) was added and mixed well. T=0 hr HPLC vials were also prepared (50 μl ATF+500 μl IPA). All vials were sonicated for 15 minutes and centrifuged. The supernatant was removed for LCMS injection.
The supernatants were injected on an LCMS instrument equipped with an ACQUITY UPLC BEH C18 […], 2.1 mm×15 cm column and running a mobile phase gradient from 65% A to 90% B at a flow rate of 0.35 mL/min with A=40% acetonitrile in water with 10 mM ammonium acetate and 0.2% (v/v) ammonium hydroxide, and B=10% acetonitrile in IPA with 10 mM ammonium acetate and 0.2% (v/v) ammonium hydroxide. The mass spec detector is run at negative electrospray mode. The peaks for oleic acid (OA) in the supernatants were measured (m/z trace=281.24). The ratio of OA peak area in ATF with and without sPLA2 was calculated.

[3] = tested on: sPLA2 enzymes found in human tears; test: Susceptibility of phospholipid in a silicone hydrogel contact lens body to digestion by tear sPLA2 enzymes; assay type: biochemical; settings: phospholipid present in a silicone hydrogel contact lens body
Text: To achieve these and other advantages, and in accordance with the purposes of the present invention, as embodied and broadly described herein, the present invention, in part relates to a hydrogel contact lens comprising a polymeric lens body loaded with 2-oleoyl phospholipid. The 2-oleoyl phospholipid is advantageously susceptible to digestion by secretory phospholipase 2-acylhydrolase (sPLA2) enzymes found in human tears, especially group IIA secretory phospholipase 2-acylhydrolase (sPLA2-IIA). The 2-oleoyl phospholipid present in the contact lens body is advantageously susceptible to digestion by sPLA2 enzymes found in human tears, especially sPLA2-IIA when the 2-oleoyl phospholipid is present in the polymeric lens body of a silicone hydrogel contact lens, such as a stenfilcon A contact lens. […] For the avoidance of doubt, while the determination of whether a 2-oleoyl phospholipid is susceptible to digestion by sPLA2 enzymes may be carried out by loading the 2-oleoyl phospholipid to a stenfilcon A lens, the contact lens of the invention, including contact lenses comprising 2-oleoyl phospholipid that have been determined to be susceptible to digestion by sPLA2 enzymes, need not be stenfilcon A lenses and may be silicone hydrogel lenses of any formulation. […]

| Oleic acid peak area in ATF (without sPLA2) ([2]; LCMS m/z 281.24) | Ratio of OA peak area in ATF with and without sPLA2 [2] | Structure (SMILES) | other results |
| --- | --- | --- | --- |
| 36 | 279 | CCCCCCCC/C=C\CCCCCCCC(=O)OC[C@H](COP(=O)(O)OCC(O)CO)OC(=O)CCCCCCC/C=C\CCCCCCCC (mixture of isomers) [DOPG, 1,2-dioleoyl-sn-glycero-3-phospho-(1′-rac-glycerol)] | Average amount of DOPG/lens ([1]; DOPG loading concentration 1.0 mg/mL in 50% EtOH/water): 240 µg; Average amount of DOPG/lens ([1]; DOPG loading concentration 2.5 mg/mL in 50% EtOH/water): 495 µg; Average amount of DOPG/lens ([1]; DOPG loading concentration 5.0 mg/mL in 50% EtOH/water): 760 µg; Average amount of DOPG/lens ([1]; DOPG loading concentration 7.5 mg/ml in 50% EtOH/water): 895 µg; Average amount of DOPG/lens ([1]; DOPG loading concentration 10.0 mg/ml in 50% EtOH/water): 975 µg; Oleic acid peak area in ATF + sPLA2 ([2]; 4 mm piece of phospholipid-loaded stenfilcon A lens in 100 μL ATF + 50 ppm recombinant human PLA2G2A, LCMS m/z 281.24): 9958 |
| – | – | CCCCCCCCCCCCCC(=O)OC[C@H](COP(=O)([O-])OCC[N+](C)(C)C)OC(=O)CCCCCCCCCCCCC [DMPC, 1,2-dimyristoyl-sn-glycero-3-phosphocholine] | Susceptibility to digestion by sPLA2 enzymes found in human tears [3]: not be susceptible to digestion by sPLA2 enzymes |
| 102 | 1.2 | CCCCCCCC/C=C\CCCCCCCC(=O)OC[C@H](COP(=O)([O-])OCC[N+](C)(C)C)OC(=O)CCCCCCC/C=C\CCCCCCCC [DOPC, 1,2-dioleoyl-sn-glycero-3-phosphocholine, reference compound] | – |
| 463 | 4.6 | CCCCCCCC/C=C\CCCCCCCC(=O)OC[C@H](COP(=O)(O)OCCN)OC(=O)CCCCCCC/C=C\CCCCCCCC [DOPE, 1,2-dioleoyl-sn-glycero-3-phosphoethanolamine] | – |

| Structure (SMILES) | Oleic acid peak area in ATF (without sPLA2) ([2]; LCMS m/z 281.24) | Ratio of OA peak area in ATF with and without sPLA2 [2] | other results |
| --- | --- | --- | --- |
| CCCCCCCC/C=C\CCCCCCCC(=O)OC[C@H](COP(=O)(O)OC[C@H](N)C(=O)O)OC(=O)CCCCCCC/C=C\CCCCCCCC [DOPS, 1,2-dioleoyl-sn-glycero-3-phospho-L-serine] | 88 | – | – |
